The assay deals with T1, human FSH receptor (Homo sapiens, UniProt P23945).
T1 construct: expressed in transfected cells; host or cells: CHO cells (hFSHR clone 16)
T1 sequence (P23945 18-695): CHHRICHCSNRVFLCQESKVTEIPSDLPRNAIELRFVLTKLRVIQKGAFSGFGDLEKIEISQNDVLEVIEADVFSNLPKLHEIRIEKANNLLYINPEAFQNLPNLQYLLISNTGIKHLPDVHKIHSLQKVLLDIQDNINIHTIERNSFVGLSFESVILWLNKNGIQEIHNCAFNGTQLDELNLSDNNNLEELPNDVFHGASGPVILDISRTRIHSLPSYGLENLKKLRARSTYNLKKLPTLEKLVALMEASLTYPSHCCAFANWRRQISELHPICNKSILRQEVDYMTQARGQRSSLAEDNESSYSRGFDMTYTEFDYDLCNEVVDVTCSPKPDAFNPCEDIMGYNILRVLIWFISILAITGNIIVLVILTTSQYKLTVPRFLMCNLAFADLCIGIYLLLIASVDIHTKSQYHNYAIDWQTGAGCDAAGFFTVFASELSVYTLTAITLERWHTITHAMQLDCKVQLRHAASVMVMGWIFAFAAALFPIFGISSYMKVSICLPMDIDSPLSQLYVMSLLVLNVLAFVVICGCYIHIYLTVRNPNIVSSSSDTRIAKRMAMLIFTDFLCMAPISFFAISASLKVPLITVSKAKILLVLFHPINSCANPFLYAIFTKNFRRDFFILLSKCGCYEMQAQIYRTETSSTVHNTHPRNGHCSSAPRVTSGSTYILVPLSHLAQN
The assay can be described thus: HTRF assay for measuring cAMP in cells (FSH-antagonistic effect). The assay is classed as cell-based. As to conditions: hFSHR clone 16 cells (CHO cells stably transfected with the human FSH receptor), in the presence of 1e-9 mol/l hFSH. The protocol:
HTRF Assay for Measuring cAMP in Cells
The method is based on a competitive immunoassay between native cAMP, which has been produced by the cells, and cAMP which is labelled with XL665. The tracer binding was visualized by a monoclonal antibody, anti-cAMP labelled with cryptate [HTRF=homogeneous time-resolved fluorescence].
The specific signal is inversely proportional to the cAMP concentration of the samples employed.
The 665 nm/620 nm fluorescence ratio was evaluated.
The following material was used: 96-well plates for the tissue culture, 96-well plates with black edge and black base (e.g. Fluotrac 600 from Greiner), 96-well plates for the substance dilutions of polypropylene and cAMP Femtomolar (4000 wells Kit, CIS Bio International #62AM1PEC).
The following reagents were used: BSA (bovine serum albumin) Fraction V protease-free, IBMX (3-isobutyl-1-methylxanthine), hFSH (human follicle stimulating hormone), Triton X-100 analytical grade, potassium fluoride analytical grade, G 418 (Geneticin) and Accutase.
Buffer 1 (washing and testing buffer) contained PBS, 1 mM CaCl2, 1 mM MgCl2, 0.2% glucose; 0.1% BSA, 1 mM IBMX. Buffer 2 (2× lysis buffer) contained 1% Triton X-100 in PBS (without CaCl2 and MgCl2). Buffer 3 (assay buffer) contained 50 mM potassium phosphate buffer (pH 7.0); 800 mM potassium fluoride; 0.2% BSA (always added fresh).
On day 1, the cells were seeded in 96-well plates (3×10^4 cells per well hFSHR clone 16 cells (CHO cells stably transfected with the human FSH receptor in 150 μl of medium). The next day, test substance dilutions were made up. For this purpose, all the substances were diluted in ice-cold buffer 1 (with or without hFSH), and the substance dilutions were placed on ice until applied to the cells.
The cell supernatant was then aspirated off, and the cells were washed 2× with 200 μl of buffer 1. The cells were treated with 60 μl of the appropriate substance concentrations at 37° C. for 2 h. The cells were then lysed with 60 μl of buffer 2 (put onto the supernatant) (on a plate shaker at RT for 30 min).
The test conjugates (XL-665 and anti-cAMP cryptate) were diluted in buffer 3 in accordance with the manufacturers' information. The actual mixture for measurement was pipetted into a black 96-well plate (in each case 15 μl of the cell lysate diluted with 35 μl of buffer 1; firstly 25 μl of XL-665 conjugate were pipetted and, after 10 min, 25 μl of the anti-cAMP cryptate were added). This is followed by incubation at RT for 90 minutes. The measurement was carried out in a PheraStar (BMG).
Dose-effect curve (hFSH) for the human receptor: 1e-8, 3e-9, 1e-9, 3e-10, 1e-10, 3e-11, 1e-11, 3e-12 mol/l.
The test substances were employed in suitable dilutions in the absence (test for agonism) and in the presence of 1e-9 mol/l hFSH.
The values of the well ratio were averaged and then entered directly in SigmaPlot versus the concentrations. The maximum and minimum values were determined for each plate, and half the difference is to be regarded as IC50.
A general note: TR-FRET usually uses a lanthanide donor and a delayed reading to cut background.
In general, IC50 refers to the concentration needed to halve the response being measured. On to `COc1ccc2nc(-c3ccccc3)cc(C(=O)NC3(CO)CCc4[nH]c5ccccc5c4C3)c2c1` (stereo not drawn) [Example 4, 6-Methoxy-2-phenyl-quinoline-4-carboxylic acid (3-hydroxymethyl-2,3,4,9-tetrahydro-1H-carbazol-3-yl)-amide], for which the IC50 came to 2000 nM. The value for `COc1ccc(-c2ccc(OC(C)C)c(C(=O)NC3(CO)CCc4[nH]c5ccc(F)cc5c4C3)c2)cc1OC` (stereo not drawn) [Example 18, 4-Isopropoxy-3′,4′-dimethoxy-biphenyl-3-carboxylic acid (6-fluoro-3-hydroxymethyl-2,3,4,9-tetrahydro-1H-carbazol-3-yl)-amide] was 200 nM; that for `CC(C)Oc1ccc(-c2cc3ccccc3o2)cc1C(=O)NC1(CO)CCc2[nH]c3ccccc3c2C1` (stereo not drawn) [Example 38, 5-Benzofuran-2-yl-N-(3-hydroxymethyl-2,3,4,9-tetrahydro-1H-carbazol-3-yl)-2-isopropoxy-benzamide] was 600 nM. With `CC(C)Oc1ccc(-c2cc3ccccc3o2)cc1C(=O)NC1(CO)CCc2[nH]c3ccc(C(=O)O)cc3c2C1` (stereo not drawn) [Example 39, 6-(5-Benzofuran-2-yl-2-isopropoxy-benzoylamino)-6-hydroxymethyl-6,7,8,9-tetrahydro-5H-carbazole-3-carboxylic acid] the figure was 6000 nM; with `CC(C)Oc1ccc(-c2cc3ccccc3o2)cc1C(=O)NC1(CO)CCc2[nH]c3ccc(F)cc3c2C1` (stereo not drawn) [Example 42, 5-Benzofuran-2-yl-N-(6-fluoro-3-hydroxymethyl-2,3,4,9-tetrahydro-1H-carbazol-3-yl)-2-isopropoxy-benzamide], 350 nM.

As for `Cc1cccc2c3c([nH]c12)CCC(CO)(NC(=O)c1cc(-c2cc4ccccc4o2)ccc1OC(C)C)C3` (stereo not drawn) [Example 46, 5-Benzofuran-2-yl-N-(3-hydroxymethyl-8-methyl-2,3,4,9-tetrahydro-1H-carbazol-3-yl)-2-isopropoxy-benzamide], the IC50 is 2500 nM.

The values are drawn from patent US20080275083A1, “2,3,4,9-TETRAHYDRO-1H-CARBAZOLES” (priority 2007, published 2008).
